We go through six compounds from paper PMC2784108 (Bioorganic & medicinal chemistry, 2009).

One assay deals with HDM2(11–119) (Homo sapiens, UniProt Q00987). Nature of the assay: Fluorescence anisotropy competition, HDM2 binding to fluorescein-labeled p53. A general note: Fluorescence polarisation rises when a labelled molecule tumbles more slowly, as on binding a larger partner.
A further assay deals with T1, GST-HDMX(1–188) (Homo sapiens, UniProt O15151).
T1 sequence (O15151 1-188): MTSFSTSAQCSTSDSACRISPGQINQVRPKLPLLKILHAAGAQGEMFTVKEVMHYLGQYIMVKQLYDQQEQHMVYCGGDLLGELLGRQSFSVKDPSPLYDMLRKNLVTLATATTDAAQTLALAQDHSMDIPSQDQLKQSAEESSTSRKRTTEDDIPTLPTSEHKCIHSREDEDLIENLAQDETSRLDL
Nature of the assay: Fluorescence anisotropy competition, HDMX binding to fluorescein-labeled p53.

[1] abbreviates: compared with derivative with hydrogen at position Y (NAPA 5).
[2] abbreviates: bromine at position Y replaced with methyl, compared with NAPA 9.

Regarding `CC(C)CCC(=O)NC(CCC(=O)O)CN(CCC1CCC2(CCCCC2)CC1)C(CCCCN)CN(CCCCc1ccc(Br)cc1)[C@@H](CCC(=O)O)CN(CCCCCc1ccc(F)cc1)CCC(N)=O` (stereo partly drawn) [NAPA 36], the “inhibition of HDM2-p53 binding (in words)” value at HDM2(11–119) is “no inhibitory activity”. At GST-HDMX(1–188), the “inhibition of HDMX-p53 binding (in words)” value is “no inhibitory activity”.

Consider `CC(C)CCCNC(=O)N(CC(CCC(=O)O)NC(N)=O)C(CCCCN)CN(C(=O)NCCc1ccc(Br)cc1)C(CCC(=O)O)CN(CCC(N)=O)C(=O)NCCCc1ccc(Br)cc1` (stereo not drawn) [NAPA 9], for which the “inhibition of HDM2 binding with p53 relative to NAPA 5” value at HDM2(11–119) (setting [1]) is listed as “two to four times better”. The “inhibition of HDMX binding with p53 relative to NAPA 5” value on GST-HDMX(1–188) (setting [1]) is reported as “two to four times better”.

As for `CC(C)CCC(=O)N[C@@H](CCCC(=O)O)CN(C(=O)NCCCC1CCCCC1)[C@@H](CCCCN)CN(C(=O)NCCc1ccc(Br)cc1)[C@@H](CCCC(=O)O)CN(CCC(N)=O)C(=O)NCCCc1ccc(F)cc1` [NAPA 34], the “inhibition of HDM2-p53 binding (in words)” value at HDM2(11–119) is given as “negative impact on inhibitory activity”. For the same compound, the “inhibition of HDMX-p53 binding (in words)” value on GST-HDMX(1–188) was “negative impact on inhibitory activity”.

With `NCCCC[C@@H](CN(C(=O)NCCCC1CCCCC1)[C@@H](CCCCN)CN(C(=O)NCCc1ccc(Br)cc1)[C@@H](CCCCN)CN(CCC(N)=O)C(=O)NCCCc1ccc(F)cc1)NC(N)=O` [NAPA 35], the “inhibition of HDM2-p53 binding (in words)” value on HDM2(11–119) is recorded as “eliminated all inhibitory activity”. Moreover, the “inhibition of HDMX-p53 binding (in words)” value on GST-HDMX(1–188) is “eliminated all inhibitory activity”.

`CC(C)CCCCNC(=O)N(CC(CCC(=O)O)NC(N)=O)C(CCCCN)CN(C(=O)NCCc1ccc(Br)cc1)C(CCC(=O)O)CN(CCC(N)=O)C(=O)NCCCc1ccc(Br)cc1` (stereo not drawn) [NAPA 13]: at HDM2(11–119), the “inhibition of HDM2-p53 binding (in words)” value is “modest inhibition”. Also, the “inhibition of HDMX-p53 binding (in words)” value at GST-HDMX(1–188) is “modest inhibition”.

In the case of `Cc1ccc(CCCNC(=O)N(CCC(N)=O)CC(CCC(=O)O)N(CC(CCCCN)N(CC(CCC(=O)O)NC(N)=O)C(=O)NCCCC(C)C)C(=O)NCCc2ccc(Br)cc2)cc1` (stereo not drawn) [NAPA 10], the “activity against HDM2 relative to NAPA 9” value at HDM2(11–119) (setting [2]) is on record as “decreased by three times”. At GST-HDMX(1–188) (setting [2]), the “inhibitory activity towards HDMX relative to NAPA 9” value was “did not significantly affect”.
